Legend:
[1] = test system: in vitro differentiated cardiomyocytes; test: Cardiotoxic effect of doxorubicin on in vitro differentiated cardiomyocytes; format: cell-based, mouse; conditions: according to Example 4 of WO2005/005621, FIG. 4
Method: (§1) FIGS. 1-4: Effect of different vinca alkaloids (FIGS. 1-3) and doxorubicin (FIG. 4) on the viability and rate of survival of in vitro differentiated cardiomyocytes. EBs were generated and cardiac cells were differentiated as described in Example 1. Photomicrographs were taken before treatment and 48 and 72 hours after treatment. Fluorescent areas representing cardiac cells were measured and calculated as described in Example 2 and 3. Cor.At refers to in vitro differentiated cardiomyocytes and MEF to Mouse Embryonic Fibroblasts.
Thereafter, Example 2, supra, is modified in that doxorubin (doxorubicinhydrochlorid) together with vinblastin, vincristin or vinorelbin is added at different concentrations and reversed dilution series to the cell culture.

[2] = test system: in vitro differentiated cardiomyocytes; test: Survival of in vitro differentiated cardiomyocytes in embryoid bodies (GFP fluorescent area); format: cell-based, mouse; conditions: ES cell-derived cardiomyocytes, after 72 hours, fluorescent area compared with before treatment
Method: as §1
The generation of “embryoid bodies” (EBs) from high density cell suspensions and differentiation of cardiac cells was essentially performed as described in Example 1 of international application WO2005/005621, the disclosure content of which is hereby incorporated by reference in its entirety. Briefly, mouse embryonic stem cells (ES cells, clone D3, ATCC CRL 1934) were stably transfected with the paMHC-GFP vector containing the gene of the green fluorescent protein under control of the cardiac α-myosin heavy chain (α-MHC) promotor. To obtain this vector, a 5.5 kb fragment containing the promoter region of the mouse α-myosin heavy chain gene (Genbank 471441) was introduced into the polylinker of the pEGFP-1 vector (Clontech Laboratories). […]
To generate EBs, ES cells were cultured in suspension at a density of 2×10^6 cells/ml in a 6 cm petri dish (Greiner, Darmstadt, Germany) in 4 ml IMDM with 20% FCS (Invitrogen, Karlsruhe, Germany) at 37° C., 5% CO2, 95% humidity on a rocking table (GFL 3006, GFL, Braunschweig, Germany) at 50 rpm for 6 hours. […] On day 14, fluorescent areas representing cardiac cells were detected by fluorescence microscopy using a Zeiss Axiovert 200M with a 10x Achroplan objective, a HQ-filterset for GFP (AF Analysentechnik, Tubingen, Germany) and a Sensicam 12 bit cooled imaging system (PCO Imaging, Kelheim, Germany). […]

SMILES | cardiotoxic effect on cardiomyocytes [1] | survival of in vitro differentiated cardiomyocytes [2]
COc1cccc2c1C(=O)c1c(O)c3c(c(O)c1C2=O)C[C@@](O)(C(=O)CO)C[C@@H]3O[C@H]1C[C@H](N)[C@H](O)[C@H](C)O1 [doxorubicin] | cardiotoxic effect | 
CC[C@]1(O)C[C@@H]2CN(CCc3c([nH]c4ccccc34)[C@@](C(=O)OC)(c3cc4c(cc3OC)N(C)[C@H]3[C@@](O)(C(=O)OC)[C@H](OC(C)=O)[C@]5(CC)C=CCN6CC[C@]43[C@@H]65)C2)C1 [vinblastin] |  | increase survival
CC[C@]1(O)C[C@H]2CN(CCc3c([nH]c4ccccc34)[C@@](C(=O)OC)(c3cc4c(cc3OC)N(C=O)[C@H]3[C@@](O)(C(=O)OC)[C@H](OC(C)=O)[C@]5(CC)C=CCN6CC[C@]43[C@@H]65)C2)C1 [vincristin] |  | increase survival
CCC1=C[C@@H]2CN(C1)Cc1c([nH]c3ccccc13)[C@@](C(=O)OC)(c1cc3c(cc1OC)N(C)[C@H]1[C@@](O)(C(=O)OC)[C@H](OC(C)=O)[C@]4(CC)C=CCN5CC[C@]31[C@@H]54)C2 [vinorelbin] |  | increase survival
